Laboratory results as given in ChEMBL document CHEMBL1154275, “Synthesis and biological evaluation of new heterocyclic quinolinones as anti-parasite and anti-HIV drug candidates” (Bioorg Med Chem Lett, 2009).

Tests used:
Leishmania donovani [1] = experiment: Antileishmanial activity against Leishmania donovani MHOM/IN/78/80/DD8 promastigote by alamar blue method; format: functional, organism-based; conditions: Leishmania donovani, MHOM/IN/78/80/DD8; read-out: IC50
[2] = tested on: Human immunodeficiency virus 1; experiment: Antiviral activity against HIV1 3B infected in human MT4 cells after 4 days by MTT assay; format: functional, organism-based; conditions: Human immunodeficiency virus 1, 3B, MT4, 96 h; read-out: EC50
[3] = Cytotoxicity against human MT4 cells after 4 days by MTT assay; format: cell-based; conditions: MT4 cells
Plasmodium falciparum = experiment: Antimalarial activity against chloroquine, pyrimethamine, proguanil-resistant Plasmodium falciparum infected in human erythrocytes after 48 hrs by flow cytometry; format: functional, organism-based; conditions: Plasmodium falciparum, 48 h; read-out: IC50
Leishmania donovani [4] = experiment: Antileishmanial activity against Leishmania donovani MHOM/IN/78/80/DD8 amastigote by alamar blue method; format: functional, organism-based; conditions: Leishmania donovani, MHOM/IN/78/80/DD8; read-out: IC50
[5] = Selectivity index, ratio of IC50 for human THP1 cells to IC50 for Plasmodium falciparum; format: toxicity, cell-based, THP-1
Trichomonas vaginalis = experiment: Antitrichomonal activity against Trichomonas vaginalis TVR79 after 48 hrs by optical microscopy; format: functional, organism-based; conditions: Trichomonas vaginalis, TVR79, 48 h; read-out: IC50
[6] = tested on: Human immunodeficiency virus 2; experiment: Antiviral activity against HIV2 ROD infected in human MT4 cells after 4 days by MTT assay; format: functional, organism-based, ISOLATE ROD; conditions: Human immunodeficiency virus 2, ISOLATE ROD, MT4, 96 h; read-out: EC50
THP-1 = experiment: Cytotoxicity against human THP1 cells after 72 hrs by propidium iodide staining-based flow cytometry; format: cell-based; conditions: Homo sapiens, THP-1, 72 h; read-out: IC50

| SMILES | IC50 (Leishmania donovani [1]) | EC50 [2] | CC50 at 96 h [3] | IC50 (Plasmodium falciparum) | IC50 (Leishmania donovani [4]) | selectivity index ([5]; human, THP-1 cells) | IC50 (Trichomonas vaginalis) | EC50 [6] | IC50 (THP-1) | selectivity index ([5]; thp-1) |
| --- | --- | --- | --- | --- | --- | --- | --- | --- | --- | --- |
| CN(C)c1nc2cc3[nH]ccc(=O)c3cc2o1 | > 250 µM | > 324 µM | > 324 µM | 40 µM | > 100 µM | > 3.1 | > 125 µM | > 324 µM | > 125 µM |  |
| O=c1cc[nH]c2ccc([N+](=O)[O-])cc12 | > 200 µM | > 356 µM | > 356 µM | 52 µM | > 200 µM | 2.5 | > 200 µM | > 356 µM | 130 µM |  |
| CC1(C)OC(=O)C(=CNc2ccc3[nH]nnc3c2)C(=O)O1 | > 200 µM | > 68.1 µM | > 68.1 µM | > 500 µM | > 200 µM |  | > 200 µM | > 68.1 µM | > 500 µM | Not Active |
| CC1(C)OC(=O)C(=CNc2ccccc2[N+](=O)[O-])C(=O)O1 | > 200 µM | > 411 µM | ≥ 411 µM | > 500 µM | > 200 µM |  | > 200 µM | ≥ 260 µM | > 500 µM | Not Active |
| CC1(C)OC(=O)C(=CNc2ccc3cn[nH]c3c2)C(=O)O1 | > 100 µM | > 436 µM | > 436 µM | > 250 µM | > 100 µM |  | > 100 µM | > 436 µM | > 250 µM | Not Active |
| CC1(C)OC(=O)C(=CNc2ccc3c(c2)OCCO3)C(=O)O1 | > 200 µM | > 428 µM | > 428 µM | > 500 µM | > 200 µM |  | > 200 µM | > 428 µM | > 500 µM | Not Active |
| CN(C)c1nc2ccc(NC=C3C(=O)OC(C)(C)OC3=O)cc2o1 | > 100 µM | > 378 µM | > 378 µM | 40 µM | > 100 µM | > 6.25 | > 100 µM | > 378 µM | > 250 µM |  |
| Cc1nc2ccc3[nH]ccc(=O)c3c2s1 | > 200 µM | > 405 µM | > 405 µM |  | > 200 µM |  | > 200 µM | > 405 µM | > 500 µM |  |
| CC1(C)OC(=O)C(=CNc2cccc([N+](=O)[O-])c2)C(=O)O1 | > 100 µM | > 251 µM | > 251 µM | 60 µM | > 100 µM | > 4.1 | > 100 µM | > 251 µM | > 250 µM |  |
| Nc1ccc2[nH]ccc(=O)c2c1 | > 200 µM | > 631 µM | ≥ 631 µM | 90 µM | > 200 µM | > 5.5 | > 200 µM | ≥ 501 µM | > 500 µM |  |
| CC1(C)OC(=O)C(=CNc2ccc3[nH]c(=O)[nH]c3c2)C(=O)O1 | > 200 µM | > 412 µM | > 412 µM | > 500 µM | > 200 µM |  | > 200 µM | > 412 µM | > 500 µM | Not Active |
| CC1(C)OC(=O)C(=CNc2ccccc2-c2nc3ccccc3s2)C(=O)O1 | > 250 µM | > 41.6 µM | 41.6 µM | > 250 µM | > 100 µM |  | > 250 µM | > 41.6 µM | > 250 µM | Not Active |
| CCOC(=O)C(=CNc1ccc([N+](=O)[O-])cc1)C(=O)OCC | > 250 µM | ≥ 198 µM | ≥ 250 µM | > 250 µM | > 100 µM |  | > 125 µM | ≥ 121 µM | > 125 µM | Not Active |
| O=c1cc[nH]c2c(-c3nc4ccccc4s3)cccc12 | > 200 µM | > 8.6 µM | 8.6 µM | > 500 µM | > 200 µM |  | > 200 µM | ≥ 1.4 µM | > 500 µM | Not Active |
| Cc1nc2ccc(NC=C3C(=O)OC(C)(C)OC3=O)cc2s1 | > 250 µM | > 317 µM | > 317 µM | 60 µM | > 200 µM | > 4.1 | > 100 µM | > 317 µM | > 250 µM |  |
| CC1(C)OC(=O)C(=CNc2cccc(-c3nc4ccccc4s3)c2)C(=O)O1 | > 200 µM | > 190 µM | > 190 µM | 30 µM | > 200 µM | 4 | > 200 µM | > 190 µM | 115 µM |  |
| O=c1cc[nH]c2c([N+](=O)[O-])cccc12 | > 200 µM | > 71.6 µM | > 71.6 µM | > 500 µM | > 200 µM |  | > 200 µM | > 71.6 µM | > 500 µM | Not Active |
| CC1(C)OC(=O)C(=CNc2ccc3ncsc3c2)C(=O)O1 | > 200 µM | > 39.1 µM | > 39.1 µM | 60 µM | 40 µM | > 8.3 | > 200 µM | > 39.1 µM | > 500 µM |  |
| O=c1cc[nH]c2cc3c(cc12)OCCO3 | > 200 µM | > 356 µM | > 356 µM | 50 µM | > 200 µM | 2.3 | > 200 µM | > 356 µM | 115 µM |  |
| C[C@@H]1[C@H](O)[C@@H](C)/C=C/C=C/C=C/C=C/C=C/C=C/C=C/[C@H](O[C@@H]2O[C@H](C)[C@@H](O)[C@H](N)[C@@H]2O)C[C@@H]2O[C@](O)(C[C@@H](O)C[C@@H](O)[C@H](O)CC[C@@H](O)C[C@@H](O)CC(=O)O[C@H]1C)C[C@H](O)[C@H]2C(=O)O [AMPHOTERICIN B] |  |  |  |  | 0.1 µM |  |  |  |  |  |
| Cc1ncc([N+](=O)[O-])n1CCO [METRONIDAZOLE] |  |  |  |  |  |  | 2.7 µM |  | > 500 µM |  |
| CC1(C)OC(=O)C(CNc2ccc3c(c2)CCC3)C(=O)O1 | > 200 µM | > 292 µM | > 292 µM | > 500 µM | > 200 µM |  | > 200 µM | > 292 µM | > 500 µM | Not Active |
| CC1(C)OC(=O)C(=CNc2ccc3c(c2)OCO3)C(=O)O1 | > 100 µM | ≥ 118 µM | > 430 µM | 10 µM | 20 µM | 25 | > 100 µM | > 430 µM | 250 µM |  |
| C[C@H]1c2cccc(O)c2C(=O)C2=C(O)[C@]3(O)C(=O)C(C(N)=O)=C(O)[C@@H](N(C)C)[C@@H]3[C@@H](O)[C@@H]21 [DOXYCYCLINE] |  |  |  |  |  | 3.1 |  |  | 20 µM |  |
